Consider four molecules from patent USRE45272E1, “β-glucuronide-linker drug conjugates” (priority 2005, dated 2014).

The structures appear in SMILES notation. pIC50: −log10 of the molar value. Where a name gives a salt, the structure may show the parent alone. Read-outs that look alike come from different tables or passages of the source. Square brackets hold non-standard residues; d marks the D form. Peptide text beside a SMILES is read from it. * marks the point of attachment. Dolaproine = CO[C@@H]([C@@H]1CCCN1)[C@@H](C)C(=O)O; Dil = CC[C@H](C)[C@H](NC)[C@@H](CC(=O)O)OC; X1 = C[C@@H](N*)[C@@H](O)c1ccccc1; NMeV = CN[C@H](C(=O)O)C(C)C

Format in all cases: cell-based
Data set [1] deals with Caki-1 (CD70+, CD30−) renal cell carcinoma cells. The experiment in a line: In vitro growth inhibition (resazurin), Caki-1. The following applies: for pIC50: 96 h exposure, resazurin metabolism, vs untreated cells, drug content, read-out: Caki-1 (CD70+, CD30−) IC50 drug. On the procedure:
(§1) In vitro growth inhibition. Cells were collected and plated in 96 well black-sided plates at a density of 10,000 cells/well in 150 μL of medium. Serial dilutions of the ADC (50 μL) were added, and incubation was carried out for 92 h at 37° C. After addition of ADC, cultures were incubated to 96 h at 37° C. Resazurin (0.25 mM, 50 μL, Sigma, St. Louis, Mo.) in medium was added and incubation was continued for 4 h. The plates were read on a Fusion HT microplate reader (Packard, Meriden, Conn.) using an excitation wavelength of 525 nm and an emission wavelength of 590 nm. Data from all assays were reduced using GraphPad Prism Version 4 for Windows (GraphPad Software, San Diego, Calif.). The IC50 concentrations compared to untreated control cells were determined using a 4 parameter curve fits.

Data set [2] has as its system 786-O (CD70+, CD30−) renal cell carcinoma cells. The experiment in a line: In vitro growth inhibition (resazurin), 786-O. The following applies: for pIC50: 96 h exposure, resazurin metabolism, vs untreated cells, drug content, read-out: 786-O (CD70+, CD30−) IC50 drug. On the procedure: as §1
(Resazurin is reduced to fluorescent resorufin, in cell work by metabolically active cells.)

The test system of data set [3] is Karpas 299 (CD30+, CD70−) ALCL cells. In words: In vitro growth inhibition (resazurin), Karpas 299. The following applies: for pIC50: 96 h exposure, resazurin metabolism, vs untreated cells, drug content, read-out: Karpas 299 (CD30+, CD70−) IC50 drug. The method, then:
as §1

Data set [4] deals with Caki-1, 786-O and Karpas 299 cell lines. In words: In vitro cytotoxicity, statements across Caki-1, 786-O and Karpas 299. The following applies: for pIC50: read-out: IC50 on Caki-1, 786-O and Karpas 299 (all lines). The method, then:
as §1
Results. […] The negative charge associated with the carboxylate group of 1b leads to reduced cytotoxic activity, presumably due to impaired intracellular access.
The ADCs of 9b effectively delivered 1b to the targeted cells. […] Conjugates of doxorubicin drug-linker 17 gave the same general profile with effective cell kill on antigen positive cell lines and specificity values >16-fold.

The term pIC50 denotes the IC50 on a negative log10 scale, so that one unit is a factor of ten. Turning to `CC[C@H](C)[C@@H]([C@@H](CC(=O)N1CCC[C@H]1[C@H](OC)[C@@H](C)C(=O)N[C@H](C)[C@@H](O)c1ccccc1)OC)N(C)C(=O)[C@@H](NC(=O)[C@@H](NC)C(C)C)C(C)C` [Compound 1a, monomethyl auristatin E] (H-[NMeV]V[Dil][Dolaproine]-X1), the results for the pIC50 in data set [1], in data set [2] and in data set [3] were 9.96, 9.72 and 10.05, respectively.

As for `CC[C@H](C)[C@@H]([C@@H](CC(=O)N1CCC[C@H]1[C@H](OC)[C@@H](C)C(=O)N[C@@H](Cc1ccccc1)C(=O)O)OC)N(C)C(=O)[C@@H](NC(=O)[C@@H](NC)C(C)C)C(C)C` [Compound 1b, N-methylvaline-valine-dolaisoleuine-dolaproine-phenylalanine] (HELM PEPTIDE1{[meV].V.[CC[C@H](C)[C@@H]([C@@H](CC(=O)[*:2])OC)N(C)[*:1]].[CO[C@H]([C@@H](C)C(=O)[*:2])[C@@H]1CCCN1[*:1]].F}$$$$V2.0), the pIC50 in data set [1] was 6.57; in data set [2] it was 6.52; in data set [3], 7.00; in data set [4] (statement for all three cell lines), 6.70 to 7.00.

In the case of `COc1cccc2c1C(=O)c1c(O)c3c(c(O)c1C2=O)C[C@@](O)(C(=O)CO)C[C@@H]3O[C@H]1C[C@H](N)[C@H](O)[C@H](C)O1` [Compound 15, doxorubicin-HCl], the pIC50 in data set [1] (Homo sapiens, CAKI-1) was 6.96; in data set [2] (Homo sapiens, 786-0) it was 7.19; in data set [3] (Homo sapiens, KARPAS-299) it was 7.54.

What is called IC50 is the point on the concentration scale where inhibition reaches its midpoint. Take `COc1cccc2c1C(=O)c1c(O)c3c(c(O)c1C2=O)C[C@@](O)(C(=O)CO)CC3OC1CC(NCCCC(OC(C)=O)OC(C)=O)C(O)C(C)O1` (stereo partly drawn) [Compound 18]: the half-inhibitory concentration (IC50) amounted to 0.04 nM in data set [1] (Homo sapiens, CAKI-1, 96 h, read-out: Caki-1 (CD70+, CD30−) IC50 drug nM); 0.01 nM in data set [2] (Homo sapiens, 786-0, 96 h, read-out: 786-O (CD70+, CD30−) IC50 drug nM); 0.1 nM in data set [3] (Homo sapiens, KARPAS-299, 96 h, read-out: Karpas 299 (CD30+, CD70−) IC50 drug nM). For the same molecule, the “fold more cytotoxic than doxorubicin (15)” value in data set [4] (across Caki-1, 786-O, Karpas 299) is 300-6500 fold. Besides, the pIC50 in data set [4] was above 9.70.
